ChEMBL document CHEMBL4007489, “First Bispecific Inhibitors of the Epidermal Growth Factor Receptor Kinase and the NF-κB Activity As Novel Anticancer Agents” (J Med Chem, 2017)

Assays:
[1] = molecular target: T1, Epidermal growth factor receptor (Homo sapiens, UniProt P00533); test: biochemical; assay type: cell-based
[2] = organism: Homo sapiens; details: at 10 µM;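 also: luciferase reporter readout of NF-kappaB activity in human U937 cells, compound added 3 h before TNFalpha stimulation, signal read 2.5 h after stimulation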
Description: Inhibition of TNFalpha-stimulated NF-kappaB (unknown origin) expressed in human U937 cells at 10 uM incubated for 3 hrs followed by TNFalpha stimulation measured after 2.5 hrs by luciferase reporter gene assay

[3] = test system: MDA-MB-231; test: cells; assay type: functional; details: Homo sapiens, MDA-MB-231, 48 h
Description: Growth inhibition of human MDA-MB-231 cells after 48 hrs by MTT assay

[4] = molecular target: T1, Epidermal growth factor receptor; details: at 150 nM
[5] = cells; assay type: cell-based; details: Homo sapiens, U-937
Description: Inhibition of TNFalpha-stimulated NF-kappaB (unknown origin) expressed in human U937 cells incubated for 3 hrs followed by TNFalpha stimulation measured after 2.5 hrs by luciferase reporter gene assay

[6] = organism: Homo sapiens; test: Inhibition of TNFalpha-stimulated NF-kappaB (unknown origin) expressed in human U937 cells at 5 uM incubated for 3 hrs followed by TNFalpha stimulation measured after 2.5 hrs by luciferase reporter gene assay; assay type: cell-based

T1 sequence (P00533 whole entry): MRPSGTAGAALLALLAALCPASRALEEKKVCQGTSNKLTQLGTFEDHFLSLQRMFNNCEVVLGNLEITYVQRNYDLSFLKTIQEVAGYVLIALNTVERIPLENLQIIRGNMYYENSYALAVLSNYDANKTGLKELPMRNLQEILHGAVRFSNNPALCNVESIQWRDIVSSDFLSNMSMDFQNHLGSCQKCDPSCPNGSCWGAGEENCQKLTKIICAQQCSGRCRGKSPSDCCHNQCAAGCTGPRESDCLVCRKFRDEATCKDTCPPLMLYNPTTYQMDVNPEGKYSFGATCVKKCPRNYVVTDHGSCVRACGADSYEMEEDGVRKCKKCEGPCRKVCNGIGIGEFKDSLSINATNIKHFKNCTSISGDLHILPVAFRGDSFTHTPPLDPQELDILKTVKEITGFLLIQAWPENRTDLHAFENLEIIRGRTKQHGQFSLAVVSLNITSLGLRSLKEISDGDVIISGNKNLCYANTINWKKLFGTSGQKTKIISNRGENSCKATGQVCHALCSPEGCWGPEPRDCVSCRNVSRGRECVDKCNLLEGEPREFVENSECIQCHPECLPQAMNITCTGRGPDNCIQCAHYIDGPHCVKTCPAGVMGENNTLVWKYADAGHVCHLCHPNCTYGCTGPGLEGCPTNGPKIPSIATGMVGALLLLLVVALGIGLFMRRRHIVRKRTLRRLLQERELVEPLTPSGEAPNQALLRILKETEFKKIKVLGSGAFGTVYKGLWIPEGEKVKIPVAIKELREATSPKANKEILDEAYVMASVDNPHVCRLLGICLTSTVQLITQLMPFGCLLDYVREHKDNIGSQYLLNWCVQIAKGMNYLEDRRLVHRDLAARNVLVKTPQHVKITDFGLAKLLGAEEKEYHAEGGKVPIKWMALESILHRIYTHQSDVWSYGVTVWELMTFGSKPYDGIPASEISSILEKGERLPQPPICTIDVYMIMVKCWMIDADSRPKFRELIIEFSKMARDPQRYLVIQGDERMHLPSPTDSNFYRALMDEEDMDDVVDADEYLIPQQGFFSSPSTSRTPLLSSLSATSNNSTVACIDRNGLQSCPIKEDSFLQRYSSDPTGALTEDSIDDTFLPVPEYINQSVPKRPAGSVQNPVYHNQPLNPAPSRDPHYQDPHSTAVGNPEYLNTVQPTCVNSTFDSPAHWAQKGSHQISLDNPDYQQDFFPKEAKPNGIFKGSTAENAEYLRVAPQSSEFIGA

IC50 [1] [nM]	GI50 [3] [nM]	inhibition [4] [%]	IC50 [5] [nM]	Compound	inhibition [2] [%]	inhibition [6] [%]
2.1				C=CC(=O)Nc1ccc2ncnc(Nc3ccc(Br)cc3F)c2c1	73.6	
9.1	> 30000	92.2		CNC(=S)Nc1ccc2ncnc(Nc3cccc(Br)c3)c2c1	3	
8.4				O=C(Nc1ccc2ncnc(Nc3cccc(Br)c3)c2c1)c1ccco1	39.4	
> 150	8700	0.9	5510	CC(C)(C)c1ccc(Nc2ncnc3ccc(NC(=S)NCc4ccccc4)cc23)cc1	91.9	
> 150	28700	40		Cc1cccc(Nc2ncnc3ccc(NC(=S)NCc4ccccc4)cc23)c1C	71.5	
> 150	12200	38.1	1700	FC(F)(F)c1ccc(NC(=S)Nc2ccc3ncnc(Nc4cccc(Br)c4)c3c2)cc1	94.8	
> 150	8400	14.5	4400	S=C(NCc1ccccc1)Nc1ccc2ncnc(Nc3ccc(-c4ccccc4)cc3)c2c1	89.1	
55.5		85	3000	S=C(Nc1cncc(Cl)c1)Nc1ccc2ncnc(Nc3cccc(Cl)c3)c2c1		78
19.3	10000	69		O=C(Nc1ccc(Cl)cc1)Nc1ccc2ncnc(Nc3cccc(Br)c3)c2c1	50.3	
	400		1300	Fc1c(NC(=S)Nc2ccc3ncnc(Nc4cccc(Br)c4)c3c2)cccc1C(F)(F)F	98	
> 150	> 30000	20.9		O=S(=O)(Nc1ccccn1)c1ccc(Nc2ncnc3ccc(NC(=S)NCc4ccccc4)cc23)cc1	6.6	
> 150	> 30000	17.7		NS(=O)(=O)c1ccc(Nc2ncnc3ccc(NC(=S)NCc4ccccc4)cc23)cc1	19.2	
> 150	> 30000	13.1	6500	S=C(NCc1ccccc1)Nc1ccc2ncnc(Nc3ccccc3Br)c2c1	85.7	
28.3	23000	77.5		S=C(NCc1ccc(Cl)cc1)Nc1ccc2ncnc(Nc3cccc(Br)c3)c2c1	78.6	
130		70.7	1000	FC(F)(F)c1nnc(NC(=S)Nc2ccc3ncnc(Nc4cccc(Cl)c4)c3c2)s1		80.5
63.6	> 30000	60.8		Oc1cccc(Nc2ncnc3ccc(NC(=S)NCc4ccccc4)cc23)c1	44.3	
> 150	12800	4.2	4300	CC(C)c1ccc(Nc2ncnc3ccc(NC(=S)NCc4ccccc4)cc23)cc1	95.7	
> 150	10500	41.7	4800	CCc1cccc(Nc2ncnc3ccc(NC(=S)NCc4ccccc4)cc23)c1	92.5	
9.5	> 30000	92.3		NS(=O)(=O)c1ccc(NC(=S)Nc2ccc3ncnc(Nc4cccc(Br)c4)c3c2)cc1	29	
		44.4		Fc1ccc(NC(=S)Nc2ccc3ncnc(Nc4cccc(Cl)c4)c3c2)cc1F		37.6
8.9	17300	91.5	6400	Oc1ccc(NC(=S)Nc2ccc3ncnc(Nc4cccc(Br)c4)c3c2)cc1	85.3	
> 150	1100	44	1700	FC(F)(F)c1cc(NC(=S)Nc2ccc3ncnc(Nc4cccc(Br)c4)c3c2)ccc1Cl	99	
10.2	> 30000	90.4		S=C(Nc1cccnc1)Nc1ccc2ncnc(Nc3cccc(Br)c3)c2c1	42.4	

IC50 [1] [nM]	GI50 [3] [nM]	inhibition [4] [%]	IC50 [5] [nM]	Compound	inhibition [2] [%]	inhibition [6] [%]
15.8	10000	86.5	5200	S=C(Nc1ccccc1)Nc1ccc2ncnc(Nc3cccc(Br)c3)c2c1	90.7	
> 150	6800	21.9		S=C(NCc1ccccc1)Nc1ccc2ncnc(Nc3ccc(Oc4ccccc4)cc3)c2c1	73.7	
146	3000	50.9	1800	S=C(Nc1cc(Cl)cc(Cl)c1)Nc1ccc2ncnc(Nc3cccc(Br)c3)c2c1	99.6	
8.9	> 30000	89.9		O=C(NCc1ccccc1)Nc1ccc2ncnc(Nc3cccc(Br)c3)c2c1	42.6	
1.5				C=CC(=O)Nc1ccc2ncnc(Nc3cccc(C)c3F)c2c1	70	
35.4	> 30000	70.4	2000	S=C(Nc1ccc(Br)cc1)Nc1ccc2ncnc(Nc3cccc(Br)c3)c2c1	96.7	
133	4800	52.9	1900	S=C(Nc1ccc(Cl)c(Cl)c1)Nc1ccc2ncnc(Nc3cccc(Br)c3)c2c1	97.2	
> 150	> 30000	6.7		N=C(N)NS(=O)(=O)c1ccc(Nc2ncnc3ccc(NC(=S)NCc4ccccc4)cc23)cc1	21.7	
	7300		3700	S=C(NCc1ccccc1)Nc1ccc2ncnc(Nc3cccc(Cl)c3)c2c1	89.7	
22	> 30000	81.7		O=S(=O)(Nc1nccs1)c1ccc(NC(=S)Nc2ccc3ncnc(Nc4cccc(Br)c4)c3c2)cc1	16.5	
> 150	15100	47.7	3800	S=C(NCc1ccccc1)Nc1ccc2ncnc(Nc3ccc(Br)cc3)c2c1	92.1	
120		70.8	1200	Cc1nnc(NC(=S)Nc2ccc3ncnc(Nc4cccc(Cl)c4)c3c2)s1		76.1
> 150	27000	44.1		Oc1ccc(Nc2ncnc3ccc(NC(=S)NCc4ccccc4)cc23)cc1	24.1	
10.7	> 30000	91.8		S=C(NCCN1CCOCC1)Nc1ccc2ncnc(Nc3cccc(Br)c3)c2c1	20.9	
> 150	800	32.3	1900	FC(F)(F)c1cc(NC(=S)Nc2ccc3ncnc(Nc4cccc(Br)c4)c3c2)cc(C(F)(F)F)c1	100	
> 150	17900	38.5		S=C(NCc1ccccc1)Nc1ccc2ncnc(Nc3cccnc3)c2c1	7.7	
15.8	8500	84.3	3500	S=C(Nc1ccc2ncnc(Nc3cccc(Br)c3)c2c1)Nc1ccccc1Cl	95.8	
48.9	12200	66	2900	S=C(Nc1ccc2ncnc(Nc3cccc(Br)c3)c2c1)Nc1ccc(Cl)cc1Cl	93.1	
60.7	1400	57.5	1000	FC(F)(F)c1cccc(NC(=S)Nc2ccc3ncnc(Nc4cccc(Br)c4)c3c2)c1	96.5	
				COc1ccc(C(=O)Nc2ccc3ncnc(Nc4cccc(Br)c4)c3c2)cc1	33.2	
36.8	19500	68.5		Cc1cccc(Nc2ncnc3ccc(NC(=S)NCc4ccccc4)cc23)c1	76.4	
19.5	8200	79.6	4900	S=C(Nc1ccc(Cl)cc1)Nc1ccc2ncnc(Nc3cccc(Br)c3)c2c1	89.5	
26.9	> 30000	84		S=C(Nc1ccc2ncnc(Nc3cccc(Br)c3)c2c1)N1CCOCC1	40.1	
